Values after ≈ are worked out from the molar mass of the structure shown.
Conditions: buffer; pH 7.4; 200.0 µM

| SMILES | solubility kinetic |
| --- | --- |
| CCC(CC)C(=O)Nc1ccc(S(=O)(=O)Nc2nccs2)cc1 | > 53 µg/mL |
| COC(=O)c1ccc(C(=O)Nc2ccc3c(c2)C(=O)NC3=O)cc1 | < 0.3 µg/mL |
| COc1ccc(CC(=O)Nc2cc(C)ccn2)cc1OC | 27.7 µg/mL (≈ 96.7 µM) |
| CSc1ccccc1NC(=O)COC(=O)Cc1ccsc1 | > 48.2 µg/mL |
| COC(=O)c1cc(COC(=O)c2nc3nc(C)cc(C)n3n2)oc1C | > 51.6 µg/mL |
| CC1=C(C)CC(C(=O)NCc2ccccc2F)C(C(=O)O)C1 (stereo not given) | > 45.8 µg/mL |
| COc1ccc(Br)c(C(=O)NC(C)(C)CO)c1 | > 45.3 µg/mL |
| CCOC(=O)Cc1csc(NC(=O)c2cc3ccccc3o2)n1 | 10.4 µg/mL (≈ 31.5 µM) |
| NC(=O)COc1ccc2oc(-c3ccccc3)cc(=O)c2c1 | 1.1 µg/mL (≈ 3.73 µM) |
| CN(C)S(=O)(=O)c1ccc(Cl)c(C(=O)OCC(=O)c2ccco2)c1 | > 55.8 µg/mL |
| CN(C)c1ccc(Nc2cc(Cl)ncn2)cc1 | 9 µg/mL (≈ 36.2 µM) |
| Cc1ccc(NS(=O)(=O)c2ccc(Cl)nc2)c(C)c1 | > 44.5 µg/mL |
| O=C(CCNS(=O)(=O)c1ccccc1C(F)(F)F)NCCCN1CCOCC1 | > 63.5 µg/mL |
| CN(C)CCCN1C(=O)c2cc3ccccc3cc2C1=O | 27.8 µg/mL (≈ 98.5 µM) |
| CC(C)C(C(=O)Nc1ccccc1F)N1C(=O)c2ccccc2C1=O (stereo not given) | 38.4 µg/mL (≈ 113 µM) |
| CCOC(=O)c1c(/N=C/c2ccc(C)cc2O)sc2c1CCN(C)C2 | 11.6 µg/mL (≈ 32.4 µM) |
| O=C(C[n+]1ccc(/C=N/O)cc1)NC(=O)Nc1ccccc1 | 41.6 µg/mL |
| CC1CCCCC1NC(=O)COc1ncnc2sccc12 (stereo not given) | > 45.8 µg/mL |
| CCCCNC(=S)N1CCC(Cc2ccccc2)CC1 | 6.2 µg/mL (≈ 21.3 µM) |
| CCC1NC(=O)c2ccccc2N1c1cccc(Cl)c1 (stereo not given) | 29.8 µg/mL (≈ 104 µM) |
| O=C(Nc1cccc(F)c1)NC1CCCc2ccccc21 (stereo not given) | 2.1 µg/mL (≈ 7.39 µM) |
| CC(=O)c1ccc(/C=C/c2nc3ccccc3n2C)o1 | > 39.9 µg/mL |
| Cc1ccc(-c2nc(C(Cl)Cl)c3ccccc3n2)cc1 | < 0.3 µg/mL |
| Cc1cc(C)cc(NC(=O)CN2CCN(C(=O)C3CCCO3)CC2)c1 (stereo not given) | > 51.8 µg/mL |

| SMILES | solubility kinetic |
| --- | --- |
| O=C(Nc1ccc(Br)cc1)C1CC(c2c(F)cccc2Cl)=NO1 (stereo not given) | 6.7 µg/mL (≈ 16.8 µM) |
| COc1ccc(Nc2ncnc3ccc([N+](=O)[O-])cc23)c(OC)c1 | 10.5 µg/mL (≈ 32.2 µM) |
| COc1ccc(-c2cc(C(=O)NN3CCOCC3)c3ccccc3n2)cc1OC | > 59 µg/mL |
| Cc1ccc(NC(=O)c2ccc(OCc3c(C)noc3C)cc2)cc1C | 6.7 µg/mL (≈ 19.1 µM) |
| CCOc1ccc(C2CC(=O)NC2=O)cc1 (stereo not given) | > 32.9 µg/mL |
| O=C(NCCCN1CCOCC1)c1cc(Cl)ccc1Cl | 41 µg/mL (≈ 129 µM) |
| O=C(Cn1c(=O)oc2ccccc21)Nc1ccccc1Cl | 6.8 µg/mL (≈ 22.5 µM) |
| COCc1cc(=O)[nH]c(-c2ccc(C(F)(F)F)cc2)n1 | > 42.6 µg/mL |
| Cc1cc(C)c(/C=C(\C#N)S(=O)(=O)c2ccccc2)[nH]1 | 0.5 µg/mL (≈ 1.75 µM) |
| CCOC(=O)c1nc(NCc2ccccc2)c2ccccc2n1 | 27.4 µg/mL (≈ 89.1 µM) |
| COc1ccc(-c2cn(-c3ccc(C)c(Cl)c3)c(=S)[nH]2)cc1OC | 11.9 µg/mL (≈ 33 µM) |
| CC(C)c1ccc(N(C)C(=O)Cc2c(C(=O)O)n(C)c3ccccc23)cc1 | > 54.7 µg/mL |
| CC(=O)NCCC(=O)Nc1nc(-c2ccc3c(c2)OCCO3)cs1 | 13.6 µg/mL (≈ 39.1 µM) |
| COc1cccc(-c2cc(C(=O)NC3CCCCC3)no2)c1 | < 0.3 µg/mL |
| NC(=O)C1CCN(CCS(=O)(=O)c2ccc(Cl)cc2)CC1 | > 49.6 µg/mL |
| COC(=O)c1cn(C(=O)c2ccc(F)cc2)c2ccccc12 | < 0.6 µg/mL |
| O=C(CSc1ccccc1F)Nc1ccc2c(c1)OCO2 | 45.4 µg/mL (≈ 149 µM) |
| O=C(CN1CCCc2ccccc21)NCCc1ccc(F)cc1 | > 46.9 µg/mL |
| CC(=O)Nc1ccc(SCc2c(C)noc2C)cc1 | > 41.5 µg/mL |
| CC1Cc2ccccc2N1S(=O)(=O)c1ccc(Cl)nc1 (stereo not given) | 1.9 µg/mL (≈ 6.15 µM) |
| O=C1CC(Sc2ncccc2C(=O)O)C(=O)N1 (stereo not given) | > 37.8 µg/mL |
| O=C(N/C(=C/c1ccc(F)cc1)C(=O)N1CCCC1)c1ccccc1 | > 50.8 µg/mL |
| O=C(Nc1nnc(CCN2CCCCC2)s1)c1ccccc1Cl | > 52.6 µg/mL |
| O=c1cnc2ccccc2n1Cc1ccc(Br)cc1 | 2.7 µg/mL (≈ 8.57 µM) |

| SMILES | solubility kinetic |
| --- | --- |
| CC(C)(C)c1ccc(C(CC(=O)O)NC(=O)CSc2ccccc2)cc1 (stereo not given) | > 55.7 µg/mL |
| O=C(CNCCO)Nc1ccc(F)c(Cl)c1 | > 37 µg/mL |
| COc1ccc(CNc2ncc(-c3ccccc3)n2C)cc1 | 28.6 µg/mL (≈ 97.5 µM) |
| Clc1ccc(-c2csc(-c3ccno3)n2)cc1 | < 0.3 µg/mL |
| Br.CC1CN2C(c3ccc(Cl)cc3)=CSC2=N1 (stereo not given) | > 49.7 µg/mL |
| Nc1ccc(S(=O)(=O)N2CCc3ccccc32)cc1 | > 41.2 µg/mL |
| CCOc1ccc(C(C)=O)cc1COC(=O)CNC(=O)C12CC3CC(CC(C3)C1)C2 | 36.7 µg/mL (≈ 88.8 µM) |
| Cc1cc(C(=O)NC2CCCCC2)on1 | > 31.2 µg/mL |
| CCOc1ccccc1NC(=O)c1ccccc1NC(=O)c1ccco1 | < 0.4 µg/mL |
| O=C(N=C1SC2CS(=O)(=O)CC2N1c1ccccc1)c1ccccc1 (stereo not given) | 4 µg/mL (≈ 10.7 µM) |
| Cc1ccc(OCC(=O)N(C)C2CCCCC2)c([N+](=O)[O-])n1 | > 46.1 µg/mL |
| Cc1ccccc1NC(=O)COC(=O)c1cc(C)n(C2CC2)c1C | 5.6 µg/mL (≈ 17.2 µM) |
| Cc1ccc(C)c2sc(NC(=O)CN3C(=O)CCC3=O)nc12 | 45.5 µg/mL (≈ 143 µM) |
| Cc1cc(C)c(C#N)c(SCCN2CCCCC2)n1 | > 41.3 µg/mL |
| O=C(/C=C/c1ccc(F)cc1)NCCCn1ccnc1 | > 41 µg/mL |
| COc1ccccc1C(=O)NCCC(=O)N1CCCC(C)C1 (stereo not given) | > 45.7 µg/mL |
| CC(=O)C1=C(O)C(=O)N(c2ccc(O)cc2)C1c1ccccc1 (stereo not given) | > 46.4 µg/mL |
| O=C(O)c1cc(-c2ccc(Cl)c(Cl)c2)n(-c2ccccc2)n1 | > 50 µg/mL |
| CC(C)=CC(=O)Nc1cccc(S(=O)(=O)NC2=NCCCCC2)c1 | > 52.4 µg/mL |
| CSCCC(NC(=O)c1ccco1)c1nc2ccccc2[nH]1 (stereo not given) | > 47.3 µg/mL |
| Cc1cc(C)c(C)c(S(=O)(=O)NC2CCCCC2)c1C | < 0.6 µg/mL |
| CCOc1ccc2[nH]c3c(N4CCC5(CC4)OCCO5)ncnc3c2c1 | 4 µg/mL (≈ 11.3 µM) |
| Cc1ccc(OCC(=O)NCCNC(=O)c2ccco2)cc1C | > 47.5 µg/mL |
| O=C(CN1CCN(c2ccc(F)cc2)CC1)c1ccc(O)cc1O | 12.7 µg/mL (≈ 38.4 µM) |

| SMILES | solubility kinetic |
| --- | --- |
| Nc1ncc2[nH]cnc2n1.O=[N+]([O-])O | > 29.7 µg/mL |
| O=C(Nc1ccc2c(c1)OCCO2)C(=O)NC1CC1 | 30.8 µg/mL (≈ 117 µM) |
| O=C(Cc1ccsc1)NCc1ccccc1F | > 37.4 µg/mL |
| Cc1ccc(OCc2nc3ccccc3n2C)cc1 | 5.7 µg/mL (≈ 22.6 µM) |
| O=C(COC(=O)Cc1ccsc1)Nc1ccccc1Cl | > 46.5 µg/mL |
| CC(C)[C@H](NC(N)=O)C(=O)Nc1ccc(OCc2ccccc2)cc1 | 3 µg/mL (≈ 8.79 µM) |
| COc1ccccc1OCc1nc(-c2cccc([N+](=O)[O-])c2)no1 | 0.9 µg/mL (≈ 2.75 µM) |
| COc1ccccc1NC(=O)c1cc(N)cc(C(=O)Nc2ccccc2OC)c1 | 29.5 µg/mL (≈ 75.4 µM) |
| Cc1cc(/C=C2\SC(=S)NC2=O)c(C)n1-c1ccccc1 | 3.3 µg/mL (≈ 10.5 µM) |
| Cc1cc(=O)[nH]c(SCC(=O)NC2CCCc3ccccc32)n1 (stereo not given) | 32.1 µg/mL (≈ 97.4 µM) |
| Cc1ccc(C(=O)NC(=S)NCc2ccccc2)cc1 | < 0.3 µg/mL |
| Fc1ccc(-n2c(=S)[nH]c3cccnc32)cc1 | > 36.8 µg/mL |
| CCCNC(=O)NC(=O)CN1CCCC1c1ccc2c(c1)OCCO2 (stereo not given) | > 52.1 µg/mL |
| Cc1ccc(NC(=O)C(c2ccccc2)c2ccccc2)c(O)c1 | 2.1 µg/mL (≈ 6.62 µM) |
| O=C(O)c1ccc(NC(=S)NCc2ccccc2)cc1 | > 43 µg/mL |
| CCOC(=O)N1CCN(c2ccccc2OC)CC1 | > 39.6 µg/mL |
| CCCC(=O)Nc1ccc2oc(=O)ccc2c1 | > 34.7 µg/mL |
| NS(=O)(=O)c1ccc(S(=O)(=O)c2ccccc2)nc1 | > 44.7 µg/mL |
| CSCCCNC(=S)N1CCc2ccccc2C1 | > 42.1 µg/mL |
| O=C1NC(=S)N/C1=C/c1ccc2ccccc2c1 | 0.6 µg/mL (≈ 2.36 µM) |
| COCCCn1c(=NC(C)=O)c(C#N)cc2c(=O)n3cccc(C)c3nc21 | 52.3 µg/mL (≈ 143 µM) |
| O=c1[nH]c(/C=C\c2ccccc2F)nc(O)c1[N+](=O)[O-] | > 41.6 µg/mL |
| Cc1ccc(NC(=O)NC(=O)c2cnccc2C(F)(F)F)c(C)c1 | 10.9 µg/mL (≈ 32.3 µM) |
| CCOC(=O)C1=C(C)NC(C)=C(C(=O)OCC)C1c1cccc(C)n1 | 5.1 µg/mL (≈ 14.8 µM) |

| SMILES | solubility kinetic |
| --- | --- |
| Cc1c(Cl)cccc1NC(=S)NCCc1ccc(Cl)cc1 | 0.4 µg/mL (≈ 1.18 µM) |
| CCOc1ccc2c(c1)C(=O)C(=O)N2CC1COc2ccccc2O1 (stereo not given) | 1.2 µg/mL (≈ 3.54 µM) |
| CC1CC(C)CN(S(=O)(=O)c2ccc(C(C)(C)C)cc2)C1 (stereo not given) | < 0.7 µg/mL |
| Cc1ccc2c(CN(C)Cc3cccc(F)c3)cc(=O)oc2c1 | 2 µg/mL (≈ 6.42 µM) |
| COC(=O)/C(=C\c1ccc(O)cc1)c1nc2ccccc2[nH]1 | 39.6 µg/mL (≈ 135 µM) |
| CC(=O)c1c(C)[nH]c(-c2ccccc2)nc1=S | 33.2 µg/mL (≈ 136 µM) |
| CN1C(=O)c2ccc(NC(=O)CSc3ccccc3)cc2C1=O | 6.3 µg/mL (≈ 19.3 µM) |
| O=C(CS(=O)(=O)c1ccccc1)NCc1ccccc1 | > 43.4 µg/mL |
| COC(=O)c1cc(COC(=O)CNC(=O)c2ccc(Br)cc2)oc1C | 6.8 µg/mL (≈ 16.6 µM) |
| CCOc1ccc(CCNC(=O)COC(=O)c2ccc[nH]c2=O)cc1OCC | > 58.3 µg/mL |
| Cc1cccc2[nH]c3c(N4CC=C(c5ccc(F)cc5)CC4)ncnc3c12 | 1 µg/mL (≈ 2.79 µM) |
| O=S(=O)(c1ccccc1)c1nc(-c2ccccc2)oc1N1CCCC1 | 1.3 µg/mL (≈ 3.67 µM) |
| Cc1cc(C)nc(NCc2ccc(Cl)cc2)n1.Cl | 5.4 µg/mL |
| CC(=O)c1sc(-c2ccc(Cl)cc2)cc1N | 1.8 µg/mL (≈ 7.15 µM) |
| CN(CC(=O)Nc1ccc(OC(F)(F)F)cc1)C(=O)/C=C/c1ccco1 | 7.7 µg/mL (≈ 20.9 µM) |
| CCOc1ccccc1NC(=O)CCNC(=O)c1ccc(Cl)cc1 | 5.6 µg/mL (≈ 16.1 µM) |
| O=C(NCc1ccco1)c1ccc(Cl)cc1[N+](=O)[O-] | > 42.1 µg/mL |
| Cc1ccc(Cl)cc1N1C(=O)CC(Sc2ncccn2)C1=O (stereo not given) | > 50.1 µg/mL |
| Cc1cccc(NCc2ccccc2)c1 | 0.8 µg/mL (≈ 4.06 µM) |
| COc1cc2c(cc1OC)CN(C(=O)c1ccc3[nH]c(C)c(C)c3c1)CC2 | 6.9 µg/mL (≈ 18.9 µM) |
| COc1ccc(N=Cc2c(O)n(C)c(=O)n(C)c2=O)cc1 | 11.1 µg/mL (≈ 38.4 µM) |
| CC(Oc1ccc(C#N)cc1)C(=O)N1CC=C(c2ccccc2)CC1 (stereo not given) | 38.4 µg/mL (≈ 116 µM) |
| NC(=O)C1CCN(C(=O)/C(=C/c2ccco2)NC(=O)c2ccccc2)CC1 | > 55.1 µg/mL |
| CN(C)CC1CCCCC1=O.Cl (stereo not given) | > 28.8 µg/mL |
